Laboratory results published in patent US20090246773A1, “DIAGNOSTIC COMPOSITIONS AND TREATMENT METHODS FOR CONDITIONS INVOLVING TROPHOBLAST CELL DEATH, DIFFERENTIATION, INVASION AND/OR CELL FUSION AND TURNOVER” (Mount Sinai Hospital, priority 2006, published 2009).
Residues, ends and D or L forms follow the SMILES beside them. *: point of attachment. Cbz = O=C(OCc1ccccc1)*; CH2F = FC*

Experiments:
[1] = tested on: villous explants; assay: TGFβ treatment of villous explants: endoglin expression; type: cell-based, human; conditions: villous explants (5-8 wks) vs. non-treated explants
Experimental: Human placental tissue from first trimester and from discordant dichorionic and monochorionic twins (n=10) and age matched normal twins (n=5) were used as physiological and pathological models of placental hypoxia. In all twins the discordancy was above 25% and absence of end diastolic velocity was documented in the growth-restricted twin. Endoglin mRNA expression was measured by quantitative PCR analysis. Protein expression was measured by Western Blot analysis using endoglin antibodies. Villous explants (5-8 wks) were used to test the effect of both oxygen and TGFβ1 and TGFβ3 on endoglin expression.

[2] = tested on: BeWo cells; assay: TGFβ treatment of BeWo cells: phospho-Smad2/3 and sFlt-1 (Western blot, real-time PCR); type: cell-based, human; conditions: 5 ng/mL, 24 hours
Experimental: (§1) Early onset (25-33 wks) severe IUGR with abnormal umbilical and uterine artery Doppler and from age-matched normal control tissues were collected. First trimester villous explants and BeWo and JEG-3 choriocarcinoma cell lines were cultured in standard conditions in the presence or absence of TGFβ1 or TGFβ 3 (5 ng/mL) for 24 hours. Message levels of sFlt-1 were measured by quantitative real-time PCR using specific TaqMan primers and probe. Protein expression of sFlt-1 was measured by Western blot using a polyclonal antibody against sFlt-1. In addition, protein lysates from placental tissues, explants and cells lines were analyzed with antibodies that recognize human Smad2, Smad3, Smad7 and phospho-Smad2/3.

[3] = tested on: villous explants; assay: TGFβ treatment of first trimester villous explants: phospho-Smad2/3 and sFlt-1 (Western blot, real-time PCR); type: cell-based, human; conditions: 5 ng/mL, 24 hours
Experimental: as §1

[4] = tested on: Mcl-1 Cleavage in Human Villous Explants; assay: Mcl-1 immunoblot of villous explants exposed to hypoxia-reoxygenation with caspase inhibitors; type: cell-based; conditions: for Mcl-1S amount: 100 μM inhibitor, relative to H/R and untreated tissues; for Mcl-1L cleavage induced by hypoxia-reoxygenation: human villous explants, summary statement
Experimental: Explant cultures were performed as previously described (Caniggia, 2000). Briefly, placental tissues (5-8 weeks of gestation, 15 sets) were placed in ice-cold PBS and processed within 2 hours of collection. Tissues were aseptically dissected to remove decidual tissue and fetal membranes. Small fragments of placental villi (25-45 mg wet weight) were teased apart, placed on Millicell-CM culture dish inserts (Millipore Corp., Bedford, Mass., USA) pre-coated with 0.15 mL of undiluted Matrigel (Collaborative Biomedical Products, Bedford, Mass., USA), and transferred to a 24-well culture dish. Explants were cultured in serum-free DMEM/F12 (Gibco BRL, Grand Island, N.Y., USA) supplemented with 100 μg/mL streptomycin, 100 U/mL penicillin, and incubated overnight at 37° C. in 5% CO2 in air to allow attachment. Explants were maintained in standard condition (5% CO2 in 95% air) or in an atmosphere of 3% O2/92% N2/5% CO2 for 48 hrs at 37° C. Explants from more than 10 different placentae in more than 15 separate experiments were used. A minimum of 3 explants per experimental condition was used at all times. Explants were exposed to hypoxia-reoxygenation (H/R) as previously described (Hung, 2002; Soleymanlou, 2005) in presence of 100 μM of the pan-caspase inhibitor z-VAD-fmk (BioMol, Plymouth Meeting, Pa.) or caspase-3-specific inhibitor z-DEVD-fmk (R&D Systems, Minneapolis, Minn.) both dissolved in DMSO (equivalent volume of DMSO in absence of inhibitors was used in control conditions).
Western blotting was performed as previously described (MacPhee, 2001). Fifty μg of total protein form placental tissue or cell line was subjected to 12% (wt/vol) SDS-PAGE. Membranes were probed at 4° C. overnight with a 1:1000 dilutions of primary antibodies:rabbit polyclonal Mtd antibody capable of recognizing all isoforms as previously reported (Soleymanlou, 2005); Mcl-1-specific rabbit polyclonal antibody (SC-819 clone S-19 from Santa Cruz Biotechnology, Santa Cruz, Calif.); specific cleaved caspase-3 (Asp175) (5Al) and cleaved caspase-8 (Asp374) rabbit polyclonal antibodies (Cell Signaling, Beverly, Mass.). For anti-Mtd and Mcl-1 antibodies, pre-immune serum and competing peptides were used as controls. A rabbit polyclonal antibody was generated against N-terminal amino acids (28-41) of syncytin (NM_014590) and pre-immune serum was used as control. After overnight incubation, membranes were washed with TBS/T and incubated for 60 minutes at room temperature with 1:5000 diluted horseradish peroxidase-conjugated anti-rabbit (Santa Cruz Biotechnology). Blots were exposed to chemiluminescent ECL-plus reagent (Amersham, Piscataway, N.J.). All blots were confirmed for equal protein loading at all time using ponceau staining.

[5] = tested on: sFlt-1 expression in first trimester placental explants; assay: sFlt-1 mRNA by qRT-PCR in first trimester villous explants (HIF-1 stabilization / knockdown); type: cell-based, human; conditions: 1.0 mM DMOG, explants at 20% O2; relative level normalized to 18S; 20% O2 alone 1.0±0.03; P<0.05
Experimental: (§2) Chorionic villous explant culture was performed as previously described (Caniggia, 2000). Briefly, placental tissues (5-8 weeks of gestation, 15 separate sets) were placed in ice-cold PBS and processed within 2 hours of collection. Tissues were aseptically dissected to remove decidual tissue and fetal membranes. Small fragments of placental villi (25-45 mg wet weight) were teased apart, placed on Millicell-CM culture dish inserts (Millipore Corp., Bedford, Mass., USA) pre-coated with 0.15 mL of undiluted Matrigel (Collaborative Biomedical Products, Bedford, Mass., USA), and transferred to a 24-well culture dish. Explants were cultured in serum-free DMEM/F12 (Gibco BRL, Grand Island, N.Y., USA) supplemented with 100 μg/mL streptomycin, 100 U/mL penicillin, and incubated overnight at 37° C. in 5% CO2 in air to allow attachment. Explants were maintained in standard condition (5% CO2 in 95% air) or in an atmosphere of 3% or 8% O2 (92% or 87% N2 and 5% CO2, respectively) for 72 hrs at 37° C. The morphological integrity and viability of villous explants and their EVT outgrowth and migration were monitored daily for up to 5 days as previously reported (Caniggia, 2000). […]
Total RNA was isolated from placental samples using a Trizol-based approach according to the manufacturer's protocol (Invitrogen, CA). […] Relative quantitation of data was performed using logarithmic curves. […]

[6] = tested on: villous explants; assay: EVT outgrowth of villous explants; type: cell-based, human; conditions: DMOG-treated explants vs. control explants at 20% O2
Experimental: Chorionic villous explant culture was performed as previously described (Caniggia, 2000). Briefly, placental tissues (5-8 weeks of gestation, 15 separate sets) were placed in ice-cold PBS and processed within 2 hours of collection. Tissues were aseptically dissected to remove decidual tissue and fetal membranes. Small fragments of placental villi (25-45 mg wet weight) were teased apart, placed on Millicell-CM culture dish inserts (Millipore Corp., Bedford, Mass., USA) pre-coated with 0.15 mL of undiluted Matrigel (Collaborative Biomedical Products, Bedford, Mass., USA), and transferred to a 24-well culture dish. Explants were cultured in serum-free DMEM/F12 (Gibco BRL, Grand Island, N.Y., USA) supplemented with 100 μg/mL streptomycin, 100 U/mL penicillin, and incubated overnight at 37° C. in 5% CO2 in air to allow attachment. Explants were maintained in standard condition (5% CO2 in 95% air) or in an atmosphere of 3% or 8% O2 (92% or 87% N2 and 5% CO2, respectively) for 72 hrs at 37° C. The morphological integrity and viability of villous explants and their EVT outgrowth and migration were monitored daily for up to 5 days as previously reported (Caniggia, 2000). Explants from more than 10 different placentae in more than 15 separate experiments were used. […]

[7] = tested on: sFlt-1 expression in first trimester placental explants; assay: sFlt-1 protein immunohistochemistry in villous explants; type: cell-based, human; conditions: DMOG added to 20% O2 explants vs. 20% O2 without DMOG; IHC
Experimental: as §2, with “Explants were maintained in standard condition (5% CO2 in 95% air) or in an atmosphere of 3% or 8% O2 (92% or 87% N2 and 5% CO2, respectively) for 72 hrs at 37° C.” left out
Paraffin sections were mounted on glass slides, dewaxed in xylene and rehydrated in descending ethanol gradient. […] Finally, avidin biotin complex (Vector Laboratories, Burlingame, Calif.) was applied for 1 hour and staining was detected with the diamino-benzidine chromogen after 5 minutes. […]

[8] = tested on: villous explants; assay: TUNEL assay of villous explants; type: cell-based, human; conditions: DMOG treatment or 3% O2 exposure of explants
Experimental: An in situ cell death detection kit was purchased from Amersham Biosciences, NJ, USA. Terminal deoxynucleotidyl transferase-dUTP-nick end labelling (TUNEL) assays were performed according to instructions provided by the manufacturer. Paraffin sections of tissue were dewaxed in xylene, rehydrated in descending grades of ethanol, and finally soaked in PBS. Tissue sections were pre-treated with Proteinase K (10 μg/mL) in PBS for 10 min, washed and then incubated in 3% hydrogen peroxide in methanol for 45 minutes. After washing in PBS, the slides were preincubated with 1× One Phor All buffer in 0.1% Triton X-100 in water for 30 minutes and then incubated in TdT solution for 1.5 hour at 37° C. Samples were washed in PBS and avidin biotin complex (Vector Laboratories, Burlingame, Calif.) was applied for 1 hour. Staining was detected with the diamino-benzidine chromogen after 10 minutes. Slides were counterstained with haematoxylin, dehydrated in ascending concentrations of ethanol, and fixed with xylene.

[9] = explants under H/R, 100 μM inhibitor in DMSO, immunoblot

Molecule	expression of membrane endoglin [1]	expression of soluble endoglin [1]	phospho-Smad2 protein expression [2]	phospho-Smad3 protein expression [2]	sFlt-1 mRNA level [2]	sFlt-1 protein level [2]	phospho-Smad2 protein expression [3]	phospho-Smad3 protein expression [3]	sFlt-1 mRNA level [3]	sFlt-1 protein level [3]	p29 Mcl-1 (Mcl-1c) band / formation from Mcl-1L [4, 9]	Mcl-1S amount ([4]; explants under H/R)	Mcl-1L cleavage induced by hypoxia-reoxygenation [4]	also measured
transforming growth factor β1 [TGFβ1]	increased	increased	increased	increased	significant increase	significant increase	increased	increased	significant increase	significant increase	–	–	–	–
COC(=O)C[C@H](NC(=O)[C@H](C)NC(=O)[C@@H](NC(=O)OCc1ccccc1)C(C)C)C(=O)CF [z-VAD-fmk] (Cbz-Val-Ala-Asp(OMe)-CH2F)	–	–	–	–	–	–	–	–	–	–	abrogated	increased	prevented	Mcl-1L content [4, 9]: restored
COC(=O)CNC(=O)C(=O)OC [DMOG, dimethyloxalyl-glycin]	–	–	–	–	–	–	–	–	–	–	–	–	–	sFlt-1 mRNA expression [5]: 2.4±0.2; explant outgrowth [6]: typical low oxygen-induced outgrowth; sFlt-1 protein expression in trophoblast layers including EVT [7]: increased; apoptosis (TUNEL) [8]: not likely due to an increased incidence of apoptosis
COC(=O)CC[C@H](NC(=O)[C@H](CC(=O)OC)NC(=O)OCc1ccccc1)C(=O)N[C@H](C(=O)N[C@@H](CC(=O)OC)C(=O)CF)C(C)C [z-DEVD-fmk]	–	–	–	–	–	–	–	–	–	–	prevented	increased	prevented	–
transforming growth factor β3 (protein, UniProt P10600 301-412, looked up, transforming growth factor β3 added to explant and cell cultures) Transforming growth factor …: ALDTNYCFRNLEENCCVRPLYIDFRQDLGWKWVHEPKGYYANFCSGPCPYLRSADTTHSTVLGLYNTLNPEASASPCCVPQDLEPLTILYYVGRTPKVEQLSNMVVKSCKCS	increased	increased	increased	increased	significant increase	significant increase	increased	increased	significant increase	significant increase	–	–	–	–
